The series can be described thus: gradient 5% acetonitrile 3 min, to 50% in 2 min, to 85% in 15 min, held 3 min, 100 µL/min. The settings on record: column: Zorbax Extend-C18 2.1 x 50 mm; eluents: water / acetonitrile, 0.1% formic acid. In a few lines:
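The system's dead and dwell volumes were 40 μL and 900 μL, with a Zorbax Extend-C18 column (2.1 × 50 mm, 1.8 μm) run at 100 μL/min in water and acetonitrile containing 0.1% formic acid each. Pure standards were analyzed in mixtures of ~100 molecules by HPLC–quadrupole time-of-flight mass spectrometry in positive and negative ionization mode. Retention time was assigned from computationally picked, manually inspected adduct peaks.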
The molecule `CCOC(=O)c1[nH]c(C)c(CN(Cc2ccco2)C(=O)Cc2ccccc2)c1C` came in with an RP-LC retention time of 977 s.
`Cc1ccc(CCNC(=O)c2cc3n(n2)CC(C)(C(=O)NC2CCCC2)N(C)C3=O)cc1` (stereo not given) had an RP-LC retention time of 809 s.
For `O=C(Cn1nc(C2CC2)cc1C(=O)N1CCCC1)Nc1ccc(F)c(F)c1` the value was 789 s; for `O=C(COc1ccc(Cl)cc1)N1C[C@H]2C[C@H](C1)[C@H]1CCCC(=O)N1C2`, 714 s; for `CCC(=O)N1CCc2cc(N3CC(C(=O)NCc4cccnc4)CC3=O)ccc21` (stereo not given), 579 s.
The value for `COc1ccc(CN2CCOC2=O)cc1OC` was 649 s; that for `Cc1ccc(-c2csc(NC(=O)c3ccc(Br)cc3)n2)c(C)c1` was 1270 s.
`CNC(=O)C1CCCN(c2nc3ncn(CC(=O)Nc4cc(F)cc(F)c4)c(=O)c3s2)C1` (stereo not given) yielded an RP-LC retention time of 681 s.
The value for `O=C(O)c1nnn(-c2ccccc2F)c1-c1cccnc1` was 612 s; that for `O=C1CC[C@]2(C(=O)N3CCCCC3)CCCC[C@H]2N1CCc1ccccc1` was 878 s.
`O=C(CSC1CCc2ccccc2NC1=O)Nc1cccc(Br)c1` (stereo not given) came in with an RP-LC retention time of 872 s.
For `COc1ccc(CCNC(=O)c2ccc3c(c2)NC(=O)C2CCCCN32)cc1OC` (stereo not given), the RP-LC retention time was found to be 731 s.
The molecule `CCN1CCN(c2nc3cc(C(=O)OC)ccc3c(=O)n2-c2cccc(Cl)c2)CC1` returned an RP-LC retention time of 665 s.
For `COc1ccc(Cl)cc1NC(=O)N1CCN(CCn2c(C(C)C)nc3cccnc32)CC1` the value was 649 s; for `CCc1noc(-c2ccnc(-n3ncc(C(=O)N4CCCC4)c3C)c2)n1`, 840 s.
In the case of `CCOc1ccccc1NC(=O)CSc1nccc(N2CCN(c3cc(C)ccc3C)CC2)n1`, the RP-LC retention time amounted to 861 s.
The value for `Cc1ccc2nc(-c3ccccc3F)c(Nc3c(C)cccc3C)n2c1` was 793 s.
For `Nc1ccc2ncnc(N3CCCCC3)c2c1`, the RP-LC retention time was found to be 593 s.
For `O=C(NCC1CCN(C(=O)c2ccccc2F)CC1)c1ccc(Cl)s1` the value was 781 s; for `CC(=O)c1ccc(N2CCN(C(=O)c3nnn4c3COC(c3ccc(F)cc3)C4)CC2)cc1` (stereo not given), 914 s.
For the molecule `CCN1C(=O)c2cccnc2Sc2cc(NC(=O)Cc3ccccc3F)ccc21`, the RP-LC retention time turned out to be 826 s.
The value for `O=C(NC1CCCC1)c1cn(-c2cc(-c3nc(C4CC4)no3)ccn2)cn1` was 867 s; that for `c1ccc(CCc2nc3nccc(-c4cccnc4)n3n2)cc1` was 726 s; that for `COC(=O)CNC(=O)C1c2ccccc2C(=O)N(Cc2ccccc2)C12CCCC2` (stereo not given) was 857 s.
The molecule `O=C(O)C1CN(C(=O)c2ccc3c(c2)OCO3)C1` showed an RP-LC retention time of 579 s.
The value for `CC(C)c1noc(CC2CCN(C(=O)c3ccsc3)CC2)n1` was 819 s.
For `Cc1cc(=O)n(CC(=O)NCc2ccccc2Cl)c(N2CCOCC2)n1` the value was 662 s; for `O=C1CN(CCc2cccs2)C2CS(=O)(=O)CC2N1c1ccc(Cl)cc1` (stereo not given), 790 s.
The value for `CCCc1cc(N2CCN(C(=O)Cc3cccs3)CC2)nc2nnc(C)n12` was 620 s.
Regarding `COc1ccc(-c2noc(C3CCCN3C(=O)c3ccnn3C)n2)cc1` (stereo not given), the RP-LC retention time was determined as 808 s.
The molecule `Cc1nnc2ccc(-c3noc(Cc4ccccc4Br)n3)cn12` registered an RP-LC retention time of 838 s.
For `CN(C(=O)Cn1cnc2c(-c3ccccc3)csc2c1=O)c1ccccc1` the value was 911 s.
The value for `Cc1ccc(Cl)cc1N1CCN(C(=O)C2CCN(S(=O)(=O)c3cn(C)cn3)CC2)CC1` was 859 s.
For `COc1ccc(N2C=C(C(=O)N3CCCC3)S(=O)(=O)c3ccccc32)cc1` the value was 764 s; for `CCCn1c(-c2cccc(C(=O)NC3CCCC3)c2)nc2cccnc21`, 772 s.
As for `Cc1ccc(-n2nc3c(N4CCCC(C(=O)NCc5ccc(Cl)cc5)C4)nnc(C)c3c2C)cc1` (stereo not given), the RP-LC retention time turned out to be 789 s.
As to `COc1cccc(CNC(=O)c2cn3cc(Cl)ccc3n2)c1OC`, the RP-LC retention time stood at 824 s.
With `CCc1noc(C2(NC(=O)c3ccc(Cl)cc3)CCCCC2)n1`, the RP-LC retention time is 1010 s.
The value for `CCc1ccc(Nc2nc(C(=O)NCCC3=CCCCC3)nc3ccccc23)cc1` was 1080 s; that for `COC(=O)c1c(C)[nH]c(C(=O)N2CCC(CC(=O)NCc3cccc(OC)c3)CC2)c1C` was 715 s; that for `O=C(NCCc1cccnc1)c1cn(-c2cc(N3CCOCC3)ncn2)cn1` was 565 s.
The value for `CCn1c(C(=O)Nc2cc(Cl)ccc2C)cc2sc(Cl)cc21` was 1310 s; that for `Cc1ccc(S(=O)(=O)N2CCCN(c3ccc(=O)n(-c4ccccc4)n3)CC2)cc1` was 835 s.
The molecule `Cc1ccc(NC(=O)N2CCCC(C)(C(=O)NCc3ccccc3C)C2)cc1C` (stereo not given) returned an RP-LC retention time of 978 s.
The value for `Cc1oc(-c2[nH]ncc2C(=O)N(C)C)cc1S(=O)(=O)Nc1cccc(Cl)c1` was 703 s.
Take `Cc1noc2ncn(CC(=O)NCCc3ccccc3Cl)c(=O)c12`: the RP-LC retention time is 792 s.
The value for `O=C(COc1ccccc1)Nc1nc(-c2ccc(Cl)cc2)cs1` was 1130 s.
`Cc1ccc(C)c(NC(=O)C2CCCN(S(=O)(=O)c3cn(C(C)C)cn3)C2)c1` (stereo not given) yielded an RP-LC retention time of 781 s.
`CC1=C(c2ccc(C)c(C)c2)S(=O)(=O)N=C1N1CCCN(C(=O)NCC(C)C)CC1` yielded an RP-LC retention time of 853 s.
For `CN(C)CCn1c2c(c(SCC(=O)Nc3ccccc3Cl)nc1=O)CCC2` the value was 624 s; for `CCN1CCN(CCNC(=O)C2CCCN(c3ncc(-c4cccc(F)c4)cn3)C2)CC1` (stereo not given), 632 s.
`O=C(c1cnccn1)N1CC(c2nc(CCOCC3CC3)no2)C1` returned an RP-LC retention time of 691 s.
As to `CCCCn1nc(-c2nc(-c3ccc(F)cc3)no2)ccc1=O`, the RP-LC retention time came out at 1100 s.
In the case of `Cc1cccc(Cn2nc3ccc(S(=O)(=O)N4CCC(C)CC4)cn3c2=O)c1`, the RP-LC retention time came out at 1040 s.
For the molecule `Cc1oc(-c2cccc(Cl)c2)nc1Cn1nnc(-c2nc(-c3ccc(F)cc3)no2)c1C`, the RP-LC retention time was 869 s.
The value for `Cc1cccc(Nc2nc(C(=O)NCCC3=CCCCC3)nc3ccccc23)c1` was 995 s; that for `COc1ccc(C(=O)N2CCC3(CC2)NC(=O)c2ccccc2N3C)cc1OC` was 676 s; that for `COc1ccc(Cn2c(=O)c3sccc3n(Cc3nc(-c4ccccc4Cl)no3)c2=O)cc1` was 1090 s.
For `COc1cccc(S(=O)(=O)N2CC(F)(F)C[C@H]2c2nnc(C)o2)c1`, the RP-LC retention time is 785 s.
`COc1ccccc1N1CCN(C(=O)Cn2c(N3CCc4ccccc4C3)nc(C)cc2=O)CC1` yielded an RP-LC retention time of 759 s.
The value for `COCCNC(=O)N1CCC(c2nnc(C(F)(F)F)o2)CC1` was 616 s.
Take `CCOC(=O)c1[nH]c(C)c(CCC(=O)N2CCC(C(=O)NCCc3c(C)noc3C)CC2)c1C`: the RP-LC retention time stood at 695 s.
The value for `O=C(NCc1ccc(N2CCOCC2)cc1)c1cn2nc(Cl)ccc2n1` was 656 s; that for `CCOc1ccc(NC(=O)c2oc3ccc(CC)cc3c2C)c2cccnc12` was 837 s.
The value for `CN(C)C(=O)C1CCc2nc(N3CCN(C(=O)C4CCC4)CC3)sc2C1` (stereo not given) was 590 s.
`O=C(Nc1ccc(OCC(=O)N2CCN(c3ccc(Cl)cc3)CC2)nc1)C1CC1` showed an RP-LC retention time of 808 s.
Take `COC(=O)Cn1nc(-c2nc(-c3cccc(Cl)c3)no2)ccc1=O`: the RP-LC retention time worked out at 960 s.
For the molecule `COc1ccc(OC)c(S(=O)(=O)N2CCC(Cc3nncn3C)C2)c1` (stereo not given), the RP-LC retention time turned out to be 619 s.
The value for `Clc1cccc(-c2ccc(CNCCCn3ccnc3)o2)c1` was 588 s.
For `Cc1ncoc1C(=O)N1CCC(F)(F)C(COCC2CC2)C1` (stereo not given) the value was 789 s; for `Cc1cc2c(c(=O)n(-c3ccc(F)cc3)c(=O)n2CC(=O)Nc2ccc(C(C)C)cc2)n1C`, 921 s.
On to `O=C(c1noc2c1CCCCC2)N1CCN(c2ccccn2)CC1`, for which the RP-LC retention time turned out to be 632 s.
`CCc1nc(OCC(=O)Nc2cc(Cl)c(OC)cc2OC)c2ccccc2n1`: the RP-LC retention time stood at 848 s.
Molecule `Cc1cc2ccccc2n1CCNC(=O)C(=O)c1cn(CC(=O)N2CCCC2)c2ccccc12` yielded an RP-LC retention time of 1010 s.
For `Cc1ccc(NC(=O)Cn2c(C)nc3onc(C)c3c2=O)c(C)c1` the value was 800 s.
With `O=C(Nc1ccc(OCc2nnc(-c3ccccc3)o2)cc1)c1ccc(Cl)nc1`, the RP-LC retention time was 898 s.
As for `COc1ccc(NC(=O)N2CCN(c3cnn4c(C)nnc4c3)CC2)cc1OC`, the RP-LC retention time was found to be 577 s.
Molecule `COc1ccc(S(=O)(=O)N2CCCC(C(N)=O)C2)cc1Cl` (stereo not given) gave an RP-LC retention time of 701 s.
The value for `COc1ccccc1NC(=O)C1CCN(S(=O)(=O)c2cn(C(C)C)cn2)CC1` was 757 s.
Molecule `COc1ccc(NC(=O)C2CCN(c3cnc4nccnc4c3)CC2)cc1Cl` returned an RP-LC retention time of 712 s.
